Measurements from PubChem BioAssay AID330 (DTP/NCI, 2004).
Where “and” joins values, the source holds several entries; their conditions need not be identical. Equal entries are not always repeated. Inconclusive results and toxic doses are left out. Rule for the calls: active = survival T/C of 150% or more; inactive = T/C below 125% in these data.

Tested on: P388 leukemia ip, CD2F1 mice, survival T/C
Assay: NCI In Vivo Anticancer Drug Screen. Data for tumor model P388 Leukemia (intraperitoneal) in CD2F1 (CDF1) mice
Conditions: endpoint: median survival time, higher = longer survival
How it was run: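 Mice carrying the transplanted tumor received test compound or vehicle. Survival was recorded in each group, and the value is the treated-group measurement divided by that of the vehicle-treated control group.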

[1] = dose: 12.5 mg/kg/injection, schedule: Q01DX005 (ip), vehicle: Klucel (hydroxypropylcellulose) (HPC)
[2] = dose: 25.0 mg/kg/injection, schedule: Q01DX005 (ip), vehicle: Klucel (hydroxypropylcellulose) (HPC)
[3] = dose: 60.0 mg/kg/injection, schedule: Q01DX005 (ip), vehicle: saline with Tween-80
[4] = dose: 120.0 mg/kg/injection, schedule: Q01DX005 (ip), vehicle: saline with Tween-80
[5] = dose: 240.0 mg/kg/injection, schedule: Q01DX005 (ip), vehicle: saline with Tween-80
[6] = dose: 50.0 mg/kg/injection, schedule: Q01DX005 (ip), vehicle: Klucel (hydroxypropylcellulose) (HPC)
[7] = dose: 100.0 mg/kg/injection, schedule: Q01DX005 (ip), vehicle: Klucel (hydroxypropylcellulose) (HPC)
[8] = dose: 200.0 mg/kg/injection, schedule: Q01DX005 (ip), vehicle: Klucel (hydroxypropylcellulose) (HPC)

Measured: T/C

CN1CCCC(C(O)c2ccccc2)S1(=O)=O (stereo not given)
inactive: dose: 50.0 mg/kg/injection, schedule: Q01DX009 (ip), vehicle: saline with Tween-80 96 % of control | dose: 100.0 mg/kg/injection, schedule: Q01DX009 (ip), vehicle: saline with Tween-80 96 % of control | dose: 200.0 mg/kg/injection, schedule: Q01DX009 (ip), vehicle: saline with Tween-80 101 % of control

CCCCN=Cc1c(OC(C)=O)c(OC(C)=O)c(C(C)C)c2cc(C)c(-c3c(C)cc4c(C(C)C)c(OC(C)=O)c(OC(C)=O)c(C=NCCCC)c4c3OC(C)=O)c(OC(C)=O)c12
inactive: dose: 6.25 mg/kg/injection, schedule: Q01DX005 (ip), vehicle: Klucel (hydroxypropylcellulose) (HPC) 95 % of control | [1] 98 % of control | [2] 97 % of control

Cc1cc(C)n(C2=NS(=O)(=O)c3ccccc3N2C)n1
inactive: [3] 93 % of control | [4] 101 % of control | [5] 99 % of control

O=C(O)c1ccc(C(=O)c2ccc([N+](=O)[O-])cc2)cc1
inactive: [3] 103 % of control | [4] 104 % of control | [5] 103 % of control

CCC(c1ccc(OCc2ccccc2)cc1)c1cc2c(cc1OCCO)OCO2 (stereo not given)
inactive: dose: 50.0 mg/kg/injection, schedule: Q01DX005 (ip), vehicle: distilled water + Tween-80 87 % of control | dose: 100.0 mg/kg/injection, schedule: Q01DX005 (ip), vehicle: distilled water + Tween-80 87 % of control | dose: 200.0 mg/kg/injection, schedule: Q01DX005 (ip), vehicle: distilled water + Tween-80 89 % of control

C=C1C(=O)C[C@@H]2CC(C)(C)C[C@]12CC(=O)O
inactive: dose: 2.5 mg/kg/injection, schedule: Q01DX005 (ip), vehicle: water 90 % of control | dose: 5.0 mg/kg/injection, schedule: Q01DX005 (ip), vehicle: water 109 % of control | dose: 10.0 mg/kg/injection, schedule: Q01DX005 (ip), vehicle: water 97 % of control | dose: 20.0 mg/kg/injection, schedule: Q01DX005 (ip), vehicle: water 98 % of control | dose: 40.0 mg/kg/injection, schedule: Q01DX005 (ip), vehicle: water 101 % of control

CCOc1ccnc2c(C)c3c([nH]c4ccccc43)c(C)c12
inactive: dose: 100.0 mg/kg/injection, schedule: Q04DX002 (ip), vehicle: saline with Tween-80 98 % of control | dose: 200.0 mg/kg/injection, schedule: Q04DX002 (ip), vehicle: saline with Tween-80 94 % of control | dose: 400.0 mg/kg/injection, schedule: Q04DX002 (ip), vehicle: saline with Tween-80 96 % of control

O=c1[nH]c(=O)n(COCc2ccccc2)cc1F
inactive: dose: 25.0 mg/kg/injection, schedule: Q04DX003 (ip), vehicle: saline 98 % of control | dose: 50.0 mg/kg/injection, schedule: Q04DX003 (ip), vehicle: saline 98 % of control | dose: 100.0 mg/kg/injection, schedule: Q04DX003 (ip), vehicle: saline 98 % of control and 97 % of control | dose: 200.0 mg/kg/injection, schedule: Q04DX003 (ip), vehicle: saline 95 % of control | dose: 400.0 mg/kg/injection, schedule: Q04DX003 (ip), vehicle: saline 98 % of control

CC(NNC(=S)N1CC2CCC(CC2)C1)c1cc2ccccc2cn1 (stereo not given)
inactive: dose: 50.0 mg/kg/injection, schedule: Q01DX005 (ip), vehicle: saline with Tween-80 114 % of control | dose: 100.0 mg/kg/injection, schedule: Q01DX005 (ip), vehicle: saline with Tween-80 112 % of control | dose: 200.0 mg/kg/injection, schedule: Q01DX005 (ip), vehicle: saline with Tween-80 121 % of control

Cn1ncc2c(NCc3ccccc3)ncnc21
inactive: dose: 6.25 mg/kg/injection, schedule: Q01DX009 (ip), vehicle: saline sonified 95 % of control | dose: 12.5 mg/kg/injection, schedule: Q01DX009 (ip), vehicle: saline sonified 95 % of control | dose: 25.0 mg/kg/injection, schedule: Q01DX009 (ip), vehicle: saline sonified 109 % of control | dose: 50.0 mg/kg/injection, schedule: Q04DX003 (ip), vehicle: saline with Tween-80 109 % of control | dose: 100.0 mg/kg/injection, schedule: Q04DX003 (ip), vehicle: saline with Tween-80 104 % of control | dose: 200.0 mg/kg/injection, schedule: Q04DX003 (ip), vehicle: saline with Tween-80 95 % of control

Cc1ccc(S(=O)(=O)N/N=C\c2cccnc2)cc1
inactive: dose: 12.5 mg/kg/injection, schedule: Q01DX009 (ip), vehicle: other 105 % of control | dose: 25.0 mg/kg/injection, schedule: Q01DX009 (ip), vehicle: other 110 % of control | dose: 50.0 mg/kg/injection, schedule: Q01DX009 (ip), vehicle: other 105 % of control | dose: 100.0 mg/kg/injection, schedule: Q01DX009 (ip), vehicle: other 109 % of control and 95 % of control | dose: 200.0 mg/kg/injection, schedule: Q01DX009 (ip), vehicle: other 99 % of control and 100 % of control | dose: 400.0 mg/kg/injection, schedule: Q01DX009 (ip), vehicle: other 101 % of control

CCOCC(=O)O
inactive: dose: 50.0 mg/kg/injection, schedule: Q01DX009 (ip), vehicle: saline 95 % of control | dose: 100.0 mg/kg/injection, schedule: Q01DX009 (ip), vehicle: saline 92 % of control | dose: 200.0 mg/kg/injection, schedule: Q01DX009 (ip), vehicle: saline 91 % of control

Cc1cccc(Nc2nc(C)nc3[nH]c(Cc4ccccc4)c(C)c23)c1
inactive: [6] 86 % of control | [7] 86 % of control | [8] 88 % of control

COc1ccc(C2COc3cc(OC(C)=O)c(OC(C)=O)cc3C2)cc1 (stereo not given)
inactive: [3] 103 % of control | [4] 103 % of control | [5] 103 % of control

COC(=O)C1=CN(CCc2ccc(O)cc2)C(=O)C2C1CC(O)C2C (stereo not given)
inactive: dose: 7.5 mg/kg/injection, schedule: Q01DX005 (ip), vehicle: saline with Tween-80 99 % of control | dose: 15.0 mg/kg/injection, schedule: Q01DX005 (ip), vehicle: saline with Tween-80 93 % of control | dose: 30.0 mg/kg/injection, schedule: Q01DX005 (ip), vehicle: saline with Tween-80 94 % of control

CCCC/C=C(\C)C(O)C(C)/C=C(\C)CCC(O)C(C)C(O)C(C)C(O)C(C)C1OC(C(C)C(=O)O)CCC1C (stereo not given)
inactive: dose: 1.5 mg/kg/injection, schedule: Q01DX005 (ip), vehicle: Klucel (hydroxypropylcellulose) (HPC) 103 % of control and 105 % of control | dose: 3.0 mg/kg/injection, schedule: Q01DX005 (ip), vehicle: Klucel (hydroxypropylcellulose) (HPC) 99 % of control and 108 % of control | dose: 6.0 mg/kg/injection, schedule: Q01DX005 (ip), vehicle: Klucel (hydroxypropylcellulose) (HPC) 102 % of control and 109 % of control | dose: 12.0 mg/kg/injection, schedule: Q01DX005 (ip), vehicle: Klucel (hydroxypropylcellulose) (HPC) 99 % of control and 100 % of control

CCCCC(C)(C(=O)OCC)C(=O)OCC
inactive: [1] 105 % of control | [2] 105 % of control | [6] 105 % of control | [7] 105 % of control | [8] 111 % of control | dose: 400.0 mg/kg/injection, schedule: Q01DX005 (ip), vehicle: Klucel (hydroxypropylcellulose) (HPC) 105 % of control

NC(=O)c1cncc(CCC(O)C(=O)O)c1 (stereo not given)
inactive: dose: 25.0 mg/kg/injection, schedule: Q04DX003 (ip), vehicle: Klucel (hydroxypropylcellulose) (HPC) 96 % of control | dose: 50.0 mg/kg/injection, schedule: Q04DX003 (ip), vehicle: Klucel (hydroxypropylcellulose) (HPC) 91 % of control | dose: 100.0 mg/kg/injection, schedule: Q04DX003 (ip), vehicle: Klucel (hydroxypropylcellulose) (HPC) 100 % of control

CC(=O)SCCCn1c(=O)n(CCCSC(C)=O)c(=O)n(CCCSC(C)=O)c1=O
inactive: dose: 50.0 mg/kg/injection, schedule: Q01DX005 (ip), vehicle: saline + Tween-80 + alcohol 114 % of control | dose: 100.0 mg/kg/injection, schedule: Q01DX005 (ip), vehicle: saline + Tween-80 + alcohol 110 % of control | dose: 200.0 mg/kg/injection, schedule: Q01DX005 (ip), vehicle: saline + Tween-80 + alcohol 116 % of control

C[n+]1ccc(/C(C#N)=N/O)cc1
inactive: dose: 50.0 mg/kg/injection, schedule: Q01DX009 (ip), vehicle: Klucel (hydroxypropylcellulose) (HPC) 119 % of control | dose: 100.0 mg/kg/injection, schedule: Q01DX009 (ip), vehicle: Klucel (hydroxypropylcellulose) (HPC) 110 % of control | dose: 200.0 mg/kg/injection, schedule: Q01DX009 (ip), vehicle: Klucel (hydroxypropylcellulose) (HPC) 109 % of control

Cc1ccc(S(=O)(=O)N2c3ccccc3CCN2/C=C/c2ccccc2)cc1
inactive: [6] 100 % of control | [7] 93 % of control | [8] 96 % of control

CCN(CC)CCOc1ccc(C=Nc2ccc3c4ccccc4n(CC)c3c2)cc1
inactive: dose: 100.0 mg/kg/injection, schedule: Q01DX001 (ip), vehicle: Klucel (hydroxypropylcellulose) (HPC) 100 % of control | dose: 200.0 mg/kg/injection, schedule: Q01DX001 (ip), vehicle: Klucel (hydroxypropylcellulose) (HPC) 100 % of control | dose: 400.0 mg/kg/injection, schedule: Q01DX001 (ip), vehicle: Klucel (hydroxypropylcellulose) (HPC) 99 % of control
